We go through 15 compounds from ChEMBL document CHEMBL1201862, “PubChem BioAssay data set” (2004).

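In this assay, cells in 96-well plates receive the compound at five concentrations for 48 hours. Endpoints are linearly interpolated between the surrounding concentrations. GI50 is the concentration that inhibits growth by half.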 The source made the active and inactive calls. Cut-off read from the data, not from the text of the source: active = GI50 up to about 1.1 µM and inactive = higher.

Some test systems named below: CAKI-1; HCT-15; K562; KM12; NCI-H23; OVCAR-4; OVCAR-5; RXF 393; SF-268; SK-MEL-28; SK-OV-3; U-251; UO-31; HL-60; NCI-H522.
Experiment in all cases: DTP human tumour cell line panel, 48 h

A word on the GI50: it is the concentration giving 50% growth inhibition. For `CCP(C)(C)=O`, the GI50 with CAKI-1 is > 100 µM (inactive); in the assay on HCT-15, greater than 100 µM; in the assay with K562, > 100 µM (inactive); with KM12, > 100 µM (inactive); in the assay with NCI-H23 it was > 100 µM (inactive); in the assay with OVCAR-4, > 100 µM (inactive). Moreover, the GI50 with OVCAR-5, in the assay on RXF 393, in the assay on SF-268, in the assay on SK-MEL-28, with SK-OV-3 and in the assay on U-251 was > 100 µM (inactive) in each case. In addition, in the assay on UO-31, the GI50 was > 10 µM (inactive).

As for `O=c1[c-](-c2ccccc2)[se]c(-c2ccccc2)[n+]1-c1ccccc1`, the GI50 with CAKI-1 was 19.1 µM (inactive); in the assay on HCT-15, 13.2 µM; with HL-60, 1.53 µM (inactive); in the assay with K562 it was 16.8 µM (inactive); in the assay on KM12 it was 10.3 µM (inactive); with NCI-H23 it was 11.8 µM (inactive). The GI50 is 2.91 µM (inactive) with NCI-H522; 2.35 µM (inactive) in the assay with OVCAR-4; 3.18 µM (inactive) in the assay on RXF 393; 5.55 µM (inactive) in the assay with SF-268; 9.31 µM (inactive) in the assay on SK-MEL-28; 24.2 µM (inactive) with SK-OV-3. In addition, the GI50 with UO-31 was 3.08 µM (inactive).

Take `COC(=O)Cc1cc(OC)c(OC)cc1Br`: the GI50 with CAKI-1, in the assay on HL-60, in the assay on K562, with KM12, with NCI-H23 and with NCI-H522 was > 100 µM (inactive) throughout. The GI50 in the assay on OVCAR-4, with OVCAR-5, in the assay with SF-268, with SK-MEL-28, with SK-OV-3 and with U-251 was > 100 µM (inactive) each time. Moreover, in the assay on UO-31, the GI50 is > 100 µM (inactive).

In the case of `NC1=NS(=O)(=O)Nc2[nH]c(-c3ccccc3)nc21`, the GI50 in the assay on HCT-15 is greater than 100 µM; with HL-60, > 100 µM (inactive); in the assay on K562, > 100 µM (inactive); in the assay with KM12, > 100 µM (inactive); in the assay with NCI-H23, > 100 µM (inactive); in the assay with NCI-H522, > 100 µM (inactive). In addition, the GI50 in the assay with OVCAR-4, in the assay with OVCAR-5, in the assay with RXF 393, with SF-268, in the assay on SK-MEL-28 and in the assay on SK-OV-3 was > 100 µM (inactive) throughout. Also, the GI50 in the assay on U-251 and in the assay with UO-31 was > 100 µM (inactive) each time.

As to `C[N+](C)(C)CC(=O)N/N=C/c1oc(-c2cccc([N+](=O)[O-])c2)c(-c2cccc([N+](=O)[O-])c2)c1[N+](=O)[O-]`, the GI50 in the assay on HL-60 is 42.3 µM (inactive); in the assay on K562 it was > 10 µM (inactive); in the assay on NCI-H23, > 100 µM (inactive); in the assay with NCI-H522 it was 50.7 µM (inactive); with OVCAR-4, > 100 µM (inactive); with OVCAR-5, > 100 µM (inactive). The GI50 with RXF 393 is 76.9 µM (inactive); in the assay with SF-268, > 100 µM (inactive); in the assay on SK-MEL-28, 44.3 µM (inactive); in the assay on SK-OV-3, > 100 µM (inactive); in the assay with UO-31 it was 79.1 µM (inactive).

Turning to `COc1cc(C2C(Cl)C(=O)N2NC(=O)c2ccc(N)cc2)cc(Br)c1O` (stereo not given), the GI50 in the assay on CAKI-1 is 16.8 µM (inactive); in the assay on HCT-15, 15 µM; in the assay on HL-60, 8.75 µM (inactive); with K562 it was 10.2 µM (inactive); in the assay on KM12, 16 µM (inactive); with NCI-H23, 16.4 µM (inactive). Also, the GI50 in the assay on NCI-H522 was 1.92 µM (inactive); in the assay with OVCAR-4, 14.8 µM (inactive); in the assay with OVCAR-5, 19.4 µM (inactive); with SF-268, 4.19 µM (inactive); in the assay on SK-MEL-28, 16.2 µM (inactive); in the assay with SK-OV-3 it was 28.5 µM (inactive). Further, the GI50 in the assay with U-251 is 3.31 µM (inactive); with UO-31 it was 17.8 µM (inactive).

As to `CC(=O)c1c(P(=O)(OC(C)C)OC(C)C)nn(-c2ccc([N+](=O)[O-])cc2)c1C`, the GI50 was > 100 µM (inactive) with CAKI-1; greater than 100 µM with HCT-15; > 100 µM (inactive) in the assay with HL-60; > 100 µM (inactive) in the assay on K562; > 100 µM (inactive) with KM12; > 100 µM (inactive) with NCI-H23. Besides, the GI50 in the assay on NCI-H522, in the assay on OVCAR-4, in the assay with OVCAR-5, with SF-268, in the assay with SK-MEL-28 and in the assay on SK-OV-3 was > 100 µM (inactive) throughout. For the same compound, the GI50 with U-251 and in the assay on UO-31 was > 100 µM (inactive) each time.

Consider `Cc1cc2c(cc1C)[n+]([O-])c(C(=O)C/C(=N/NC(=O)CC#N)C(=O)Nc1ccccc1C(F)(F)F)c(C)[n+]2[O-]`, for which the GI50 with CAKI-1 is 57.7 µM (inactive); with HCT-15, 36.6 µM; with HL-60, 24.3 µM (inactive); with K562, 35.6 µM (inactive); in the assay with KM12 it was 34 µM (inactive); in the assay on NCI-H23, 91.4 µM (inactive). Moreover, the GI50 with NCI-H522 is 18.8 µM (inactive); with OVCAR-4 it was 44 µM (inactive); in the assay on OVCAR-5, 62.2 µM (inactive); in the assay with RXF 393, 77.1 µM (inactive); in the assay with SF-268, 39.9 µM (inactive); with SK-MEL-28, 70.8 µM (inactive). Also, the GI50 with SK-OV-3 was > 100 µM (inactive); in the assay on U-251, 49.5 µM (inactive).

Regarding `N#CCc1ccc(/C(C#N)=C2/OC(=N)C(c3ccc(CC#N)cc3)C2=O)cc1` (stereo not given), the GI50 in the assay with CAKI-1 was > 100 µM (inactive); in the assay with HCT-15, greater than 100 µM; with HL-60 it was > 100 µM (inactive); in the assay with K562, > 100 µM (inactive); in the assay with NCI-H23, > 100 µM (inactive); in the assay with NCI-H522 it was > 100 µM (inactive). Also, the GI50 with OVCAR-4, in the assay on OVCAR-5, in the assay on RXF 393, in the assay on SF-268, in the assay with SK-MEL-28 and in the assay on SK-OV-3 was > 100 µM (inactive) in each case. For the same compound, the GI50 in the assay on UO-31 was > 100 µM (inactive).

With `O=C(O)/C(=C/c1ccccc1[N+](=O)[O-])c1ccccc1`, the GI50 in the assay with CAKI-1 is > 100 µM (inactive); in the assay on HCT-15, greater than 100 µM; with HL-60, > 100 µM (inactive); in the assay on K562 it was > 100 µM (inactive); in the assay with KM12 it was > 100 µM (inactive); in the assay on NCI-H23, > 100 µM (inactive). In addition, the GI50 in the assay on NCI-H522, in the assay on OVCAR-4, in the assay with OVCAR-5, in the assay with SF-268, with SK-MEL-28 and in the assay on SK-OV-3 was > 100 µM (inactive) each time. The GI50 with U-251 and with UO-31 was > 100 µM (inactive) throughout.

Consider `O=C1C=C(Nc2ccc(Br)cc2)c2ccccc2C1=O`, for which the GI50 was 5.26 µM in the assay on HCT-15; 4.51 µM (inactive) with HL-60; 13.9 µM (inactive) with K562; 14.1 µM (inactive) in the assay on KM12; 3.33 µM (inactive) in the assay with NCI-H23; 11.3 µM (inactive) in the assay with NCI-H522. For the same compound, the GI50 with OVCAR-4 was 2.09 µM (inactive); in the assay on OVCAR-5, 20.8 µM (inactive); in the assay on RXF 393 it was 16.7 µM (inactive); in the assay on SF-268, 13.5 µM (inactive); in the assay on SK-MEL-28 it was 17.2 µM (inactive); in the assay on SK-OV-3, 16.8 µM (inactive). Also, the GI50 in the assay on U-251 is 4 µM (inactive); with UO-31, 16 µM (inactive).

For `CC(C)N(C(=O)C12C3C4C1C1C2C3C41C(=O)O)C(C)C` (stereo not given), the GI50 with CAKI-1 is > 100 µM (inactive); with HCT-15, greater than 100 µM; in the assay on HL-60, > 100 µM (inactive); in the assay with K562, > 100 µM (inactive); in the assay on KM12, > 100 µM (inactive); in the assay with NCI-H23 it was > 100 µM (inactive). For the same compound, the GI50 in the assay on NCI-H522, in the assay on OVCAR-4, in the assay on OVCAR-5, with SF-268, with SK-MEL-28 and with SK-OV-3 was > 100 µM (inactive) each time. Besides, the GI50 in the assay with UO-31 is > 100 µM (inactive).

Take `Cc1cccc2nc3cccc(C(=O)NCCN(C)C)c3nc12`: the concentration for 50% growth inhibition (GI50) in the assay with CAKI-1 is 0.482 µM (active); with HCT-15 it was 0.442 µM; in the assay with HL-60 it was 0.461 µM (active); in the assay with K562, 0.363 µM (active); with KM12, 0.641 µM (active); in the assay with NCI-H23, 0.541 µM (active). Also, the GI50 in the assay with OVCAR-4 is 0.83 µM (active); in the assay with OVCAR-5, 1.61 µM (inactive); with RXF 393 it was 1.03 µM (active); with SF-268, 0.885 µM (active); in the assay on SK-MEL-28 it was 1.01 µM (active); with SK-OV-3 it was 0.574 µM (active). Besides, the GI50 is 0.492 µM (active) in the assay with U-251 and 0.239 µM (active) with UO-31.

As to `NC1=NN(c2ccccc2)C(=O)C1/C(=N\NC(=O)c1cc2ccccc2cc1O)C(=O)Nc1ccc(Cl)c(Cl)c1` (stereo not given), the GI50 is 54.5 µM (inactive) in the assay on CAKI-1; 13.6 µM with HCT-15; 5.13 µM (inactive) with HL-60; 28.4 µM (inactive) in the assay with K562; 43.6 µM (inactive) in the assay on KM12; 28.9 µM (inactive) in the assay with NCI-H23. For the same compound, the GI50 in the assay with NCI-H522 was 16.5 µM (inactive); in the assay on OVCAR-4, 16.3 µM (inactive); in the assay on OVCAR-5, 44.6 µM (inactive); in the assay on RXF 393, 49.2 µM (inactive); in the assay with SF-268, 22.9 µM (inactive); in the assay on SK-MEL-28 it was 83.4 µM (inactive). Further, the GI50 in the assay with U-251 is 33 µM (inactive); with UO-31 it was 17.6 µM (inactive).

Turning to `CC(=O)Nc1ccc(Cl)c(Cl)c1`, the 50% growth inhibitory concentration (GI50) in the assay with HCT-15 was greater than 100 µM; with HL-60, > 10 µM (inactive); in the assay with K562 it was > 100 µM (inactive); in the assay with KM12 it was > 100 µM (inactive); with NCI-H23, > 100 µM (inactive); in the assay on NCI-H522, > 100 µM (inactive). The GI50 in the assay with RXF 393, in the assay with SF-268, in the assay with SK-MEL-28, in the assay with SK-OV-3, with U-251 and with UO-31 was > 100 µM (inactive) in each case.
